Laboratory results from patent publication US8680102B2, “Pyrrole derivatives, their preparation and their therapeutic application” (Sanofi, priority 2008, dated 2014).

Assays:
[1] = molecular target: T1, CB1 receptors present at the periphery (Mus musculus, UniProt P47746); assay: blocking of the inhibitory effect of CP55940 on the gastrointestinal transit; format: in vivo; details: po route at 10 mg/kg, mice
T1 construct: from tissue; host or cells: whole mouse, in vivo (peripheral / gastrointestinal CB1)
Procedure: A percentage reversion of the effect of CP55940 greater than 50% at 10 mg/kg indicates a significant antagonist power at the level of the CB1 receptors present at the periphery.

[2] = molecular target: T2, CB1 receptors present in the brain (Mus musculus, UniProt P47746); assay: Measurement (3): blocking of the hypothermic effect induced by CP55940; format: in vivo; set-up: from tissue; host or cells: whole animal, in vivo (brain CB1); details: iv route at 10 mg/kg
[3] = molecular target: T2, CB1 receptors present in the brain; assay: Measurement (2): ex vivo test of binding of [3H]-CP55940 in the brain; set-up: the CB1 receptors present in the brain in mice; from tissue; host or cells: mouse brain, after intravenous administration; details: iv route at 10 mg/kg, mice
[4] = Measurement (1): quantification of compound in brain and plasma by LC-MS/MS; format: in vivo; details: iv route at 3 mg/kg, mouse, read-out: Ratio: Quantity present in the brain / Quantity present in the plasma

T1 sequence (P47746 whole entry): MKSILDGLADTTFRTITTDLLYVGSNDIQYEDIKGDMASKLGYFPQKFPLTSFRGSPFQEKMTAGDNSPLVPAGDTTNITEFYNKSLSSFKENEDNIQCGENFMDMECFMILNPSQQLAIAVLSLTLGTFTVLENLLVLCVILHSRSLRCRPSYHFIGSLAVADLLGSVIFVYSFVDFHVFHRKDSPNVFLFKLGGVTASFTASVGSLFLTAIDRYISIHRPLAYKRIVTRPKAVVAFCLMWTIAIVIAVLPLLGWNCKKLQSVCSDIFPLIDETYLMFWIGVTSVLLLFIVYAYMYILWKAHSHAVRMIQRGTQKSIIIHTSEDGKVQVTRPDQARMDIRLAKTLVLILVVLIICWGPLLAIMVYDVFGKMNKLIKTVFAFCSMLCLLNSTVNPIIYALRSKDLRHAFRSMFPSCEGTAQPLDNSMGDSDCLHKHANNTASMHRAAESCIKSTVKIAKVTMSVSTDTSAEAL
T2 sequence (P47746 whole entry): as above

| % reversion of the effect of CP55940 on the GIT [1] | % reversion of the hypothermic effect of CP55940 [2] | inhibition at 10 mg/kg [3] | Kp [4] | SMILES |
| --- | --- | --- | --- | --- |
| 100% | 58% | 5% |  | NC(=O)C1(c2ccccc2)CCN(C(=O)c2cc(-c3ccc(Cl)cc3Cl)n(-c3ccc(Cl)cc3)c2CCCCO)CC1 [compound 13, 1-{[1-(4-chlorophenyl)-5-(2,4-dichlorophenyl)-2-(4-hydroxybutyl)-1H-pyrrol-3-yl]carbonyl}-4-phenylpiperidine-4-carboxamide] |
| 85% | 60% | 27% |  | NC(=O)C1(c2ccccc2)CCN(C(=O)c2cc(-c3ccc(Cl)cc3Cl)n(-c3ccc(Cl)cc3)c2CCO)CC1 [compound 14, 1-{[1-(4-chlorophenyl)-5-(2,4-dichlorophenyl)-2-(2-hydroxyethyl)-1H-pyrrol-3-yl]carbonyl}-4-phenylpiperidine-4-carboxamide] |
| 97% | 60% | 23% |  | NC(=O)C1(N2CCC(F)(F)CC2)CCN(C(=O)c2cc(-c3ccc(Cl)cc3Cl)n(-c3ccc(Cl)cc3)c2CCCCO)CC1 [compound 17, 1′-{[1-(4-chlorophenyl)-5-(2,4-dichlorophenyl)-2-(4-hydroxybutyl)-1H-pyrrol-3-yl]carbonyl}-4,4-difluoro-1,4′-bipiperidine-4′-carboxamide] |
| 74% | 32% | 21% | 0.06 | NC(=O)C1(c2ccc(Cl)cc2)CCN(C(=O)c2cc(-c3ccc(Cl)cc3Cl)n(-c3ccc(Cl)cc3)c2CCCO)CC1 [compound 30, 4-(4-chlorophenyl)-1-{[1-(4-chlorophenyl)-5-(2,4-dichlorophenyl)-2-(3-hydroxypropyl)-1H-pyrrol-3-yl]carbonyl}piperidine-4-carboxamide] |
